Laboratory results published in patent publication US10450288B2, “Hydroxy formamide derivatives and their use” (GLAXOSMITHKLINE INTELLECTUAL PROPERTY (NO.2) LIMITED, priority 2014, dated 2019).
Structures can show the parent of a compound that is named as a salt.

These compounds were tested on human cardiac fibroblasts (assay: Cell-based inhibition assay of generation of procollagen I C-terminal propeptide (PICP), PICP ELISA). Settings: Cardiac fibroblast; human cardiac fibroblasts, crowding media, 24 to 48 hr, PICP ELISA of media; read-out: pIC50, PICP cellular inhibition assay (converted).
Procedure, shortened: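 Cardiac fibroblasts (passage ≤6) treated 24–48 h at 37 °C with compounds in ficoll crowding medium containing 100 μM ascorbic acid, DMSO <0.3%. PICP secreted into the medium was quantified by ELISA, normalised to untreated controls and fitted to log(inhibitor)–response to give pIC50.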

Structure (SMILES)	IC50 [µM]
CCCCC[C@@H](C(=O)NCNC(=O)c1ccc(-c2ccccc2)o1)[C@@H](CC)N(O)C=O [Example 24, N-(((R)-2-((R)-1-(N-hydroxyformamido)propyl)heptanamido)methyl)-5-phenylfuran-2-carboxamide]	< 3.98
CCCCC[C@@H](C(=O)NCNC(=O)c1ccc(-c2cc(OCC)cc(C(=O)O)c2)o1)[C@@H](CC)N(O)C=O [Example 39, 3-ethoxy-5-(5-((((R)-2-((R)-1-(N-hydroxyformamido)propyl)heptanamido)methyl)carbamoyl)furan-2-yl)benzoic acid]	< 3.98
CCCCC[C@@H](C(=O)NCNC(=O)c1ccc(-c2cc(OCC)cc(C(=O)N[C@@H](CC(=O)O)C(=O)OC(C)(C)C)c2)o1)[C@@H](CC)N(O)C=O [Example 47, (S)-4-(tert-butoxy)-3-(3-ethoxy-5-(5-((((R)-2-((R)-1-(N-hydroxyformamido)propyl)heptanamido)methyl)carbamoyl)furan-2-yl)benzamido)-4-oxobutanoic acid]	< 3.98
CCCCC[C@@H](C(=O)NCNC(=O)c1ccc(-c2ccc(C(=O)N[C@@H](CC(=O)O)C(=O)O)cc2)o1)[C@@H](CC)N(O)C=O [Example 119, (S)-2-(4-(5-((((R)-2-((R)-1-(N-hydroxyformamido)propyl)heptanamido)methyl)carbamoyl)furan-2-yl)benzamido) succinic acid]	< 3.98
CCCCC[C@@H](C(=O)NCNC(=O)c1ccc(-c2ccc(C(=O)N[C@@H](CC(=O)O)C(=O)O)c(C)c2)o1)[C@@H](CC)N(O)C=O [Example 120, (S)-2-(4-(5-((((R)-2-((R)-1-(N-hydroxyformamido)propyl)heptanamido)methyl)carbamoyl)furan-2-yl)-2-methylbenzamido) succinic acid]	< 3.98
CCCCC[C@@H](C(=O)NCNC(=O)c1ccc(-c2cc(OCC(=O)O)cc(C(=O)N[C@@H](CC(=O)O)C(=O)O)c2)o1)[C@@H](CC)N(O)C=O [Example 125, (S)-2-(3-(carboxymethoxy)-5-(5-((((R)-2-((R)-1-(N-hydroxyformamido)propyl)heptanamido)methyl)carbamoyl)furan-2-yl)benzamido) succinic acid]	< 3.98
CCCCC[C@@H](C(=O)NCNC(=O)c1ccc(-c2ccc(C(=O)O)c(C(=O)O)c2)o1)[C@@H](CC)N(O)C=O [Example 129, 4-(5-((((R)-2-((R)-1-(N-hydroxyformamido)propyl)heptanamido)methyl)carbamoyl)furan-2-yl)phthalic acid]	< 3.98
CCCCC[C@@H](C(=O)NCNC(=O)c1ccc(-c2cc(CN(C)CC(=O)O)cc(OCC)c2)o1)[C@@H](CC)N(O)C=O [Example 130, 2-((3-ethoxy-5-(5-((((R)-2-((R)-1-(N-hydroxyformamido)propyl)heptanamido)methyl)carbamoyl)furan-2-yl)benzyl)(methyl)amino)acetic acid]	< 3.98
CCCCC[C@@H](C(=O)NCNC(=O)c1ccc(-c2cc(OCC(N)=O)cc(C(=O)O)c2)o1)[C@@H](CC)N(O)C=O [Example 131, 3-(2-amino-2-oxoethoxy)-5-(5-((((R)-2-((R)-1-(N-hydroxyformamido)propyl)heptanamido)methyl)carbamoyl)furan-2-yl)benzoic acid]	< 3.98
CCCCC[C@@H](C(=O)NCNC(=O)c1ccc(-c2ccc(C(=O)N[C@H](CC(=O)O)C(=O)O)cc2)o1)[C@@H](CC)N(O)C=O [Example 133]	< 3.98
CCCCC[C@@H](C(=O)NCNC(=O)c1ccc(-c2ccc(C(=O)N[C@@H](CCC(=O)O)C(=O)O)cc2)o1)[C@@H](CC)N(O)C=O [Example 134, (S)-2-(4-(5-((((R)-2-((R)-1-(N-hydroxyformamido)propyl)heptanamido)methyl)carbamoyl)furan-2-yl)benzamido) pentanedioic acid]	< 3.98
CCCCC[C@@H](C(=O)NCNC(=O)c1ccc(-c2ccc(C(=O)N[C@@H](CCC(=O)O)C(=O)O)c(OCC)c2)o1)[C@@H](CC)N(O)C=O [Example 135, (S)-2-(2-ethoxy-4-(5-((((R)-2-((R)-1-(N-hydroxyformamido)propyl)heptanamido)methyl)carbamoyl)furan-2-yl)benzamido) pentanedioic acid]	< 3.98
CCCCC[C@@H](C(=O)NCNC(=O)c1ccc(-c2ccc(C(=O)N(CC(=O)O)CC(=O)O)cc2)o1)[C@@H](CC)N(O)C=O [Example 136, 2,2′-((4-(5-((((R)-2-((R)-1-(N-hydroxyformamido)propyl)heptanamido)methyl)carbamoyl)furan-2-yl)benzoyl)azanediyl)diacetic acid]	< 3.98
CCCCC[C@@H](C(=O)NCNC(=O)c1ccc(-c2cc(CNCP(=O)(O)O)cc(OCC)c2)o1)[C@@H](CC)N(O)C=O [Example 137, (((3-ethoxy-5-(5-((((R)-2-((R)-1-(N-hydroxyformamido)propyl)heptanamido)methyl)carbamoyl)furan-2-yl)benzyl)amino)methyl)phosphonic acid, trifluoroacetic acid salt]	< 3.98
CCCCC[C@@H](C(=O)NCNC(=O)c1ccc(-c2cc(O)cc(P(=O)(O)O)c2)o1)[C@@H](CC)N(O)C=O [Example 138, (3-hydroxy-5-(5-((((R)-2-((R)-1-(N-hydroxyformamido)propyl)heptanamido)methyl)carbamoyl)furan-2-yl)phenyl) phosphonic acid]	< 3.98
CCOc1cc(-c2ccc(C(=O)NCNC(=O)[C@H](CCc3ccccc3)[C@@H](CC)N(O)C=O)o2)cc(P(=O)(O)O)c1 [Example 140]	< 3.98
CCOc1cc(-c2ccc(C(=O)NCNC(=O)[C@H](CCc3ccc4ccccc4c3)[C@@H](CC)N(O)C=O)o2)cc(P(=O)(O)O)c1 [Example 141]	< 3.98
CCCCC[C@@H](C(=O)NCNC(=O)c1ccc(-c2ccc(C(=O)NCP(=O)(O)O)c(O)c2)o1)[C@@H](CC)N(O)C=O [Example 142, ((2-hydroxy-4-(5-((((R)-2-((R)-1-(N-hydroxyformamido)propyl)heptanamido)methyl)carbamoyl)furan-2-yl)benzamido)methyl)phosphonic acid]	< 3.98
CCCCC[C@@H](C(=O)NCNC(=O)c1ccc(-c2ccc(C(=O)NCP(=O)(O)O)cc2)o1)[C@@H](CC)N(O)C=O [Example 143, ((4-(5-((((R)-2-((R)-1-(N-hydroxyformamido)propyl)heptanamido)methyl)carbamoyl)furan-2-yl)benzamido)methyl)phosphonic acid]	< 3.98
CCCCC[C@@H](C(=O)NCNC(=O)c1ccc(-c2ccc(C(=O)NCP(=O)(O)O)c(C)c2)o1)[C@@H](CC)N(O)C=O [Example 144, ((4-(5-((((R)-2-((R)-1-(N-hydroxyformamido)propyl)heptanamido)methyl)carbamoyl)furan-2-yl)-2-methylbenzamido)methyl)phosphonic acid]	< 3.98
CCCCC[C@@H](C(=O)NCNC(=O)c1ccc(-c2cc(OCC(=O)O)cc(P(=O)(O)O)c2)o1)[C@@H](CC)N(O)C=O [Example 145, 2-(3-(5-((((R)-2-((R)-1-(N-hydroxyformamido)propyl)heptanamido)methyl)carbamoyl)furan-2-yl)-5-phosphonophenoxy) acetic acid]	< 3.98
CCCCC[C@@H](C(=O)NCNC(=O)c1ccc(-c2ccc(C(=O)O)c(O)c2)o1)[C@@H](CC)N(O)C=O [Example 146, 2-hydroxy-4-(5-((((R)-2-((R)-1-(N-hydroxyformamido)propyl)heptanamido)methyl)carbamoyl)furan-2-yl)benzoic acid]	< 3.98

Same assay, conditions: Homo sapiens, Cardiac fibroblast, read-out: pIC50, PICP cellular inhibition assay (converted)

Structure (SMILES)	IC50 [µM]
CCCCC[C@H](CN(O)C=O)C(=O)NCNC(=O)c1ccc(-c2ccccc2)o1 [Example 5, (R)-N-((2-((N-hydroxyformamido)methyl)heptanamido)methyl)-5-phenylfuran-2-carboxamide]	< 3.98

These compounds were tested on human cardiac fibroblasts (assay: Cell-based inhibition assay of mature collagen deposition (immunostaining)). Settings: Cardiac fibroblast; human cardiac fibroblasts, crowding media, 24 to 48 hr, collagen I immunostaining normalized to nuclei; read-out: pIC50, mature collagen cellular inhibition assay (converted).
Description: Cell-Based Inhibition Assay of Generation of Procollagen I C-Terminal Propeptide (PICP) and Mature Collagen:
An adaptation of the collagen deposition assay described by Chen, C. Z. C., et al., British Journal of Pharmacology, 2009, 158, 1196-1209 was used to examine effect of compounds on procollagen I processing and collagen deposition. In the adapted assay, human cardiac fibroblasts were utilized. Processing of procollagen I was determined by a PICP ELISA assay and deposition of mature collagen was determined by immunostaining.
Human cardiac fibroblasts were cultured and maintained until passage 6 in FGM-3 media (Lonza, #CC-3132) in a 37° C. humidified incubator with 5% CO2. They were then seeded in 96-well black wall, clear bottom plates at 10,000 to 15,000 cells per well in eagle's minimum essential media (EMEM, ATCC #30-2003) containing 10% fetal bovine serum (FBS, Life Technologies #10082147), 1% Glutamax (Life Technologies #35050061) and 1% Penicillin and Streptomycin (Life Technologies #15070063). These cultures were placed in 37° C. incubator. The next day, media were removed by aspiration and cells were rinsed with phosphate buffered saline. Crowding media (also called ficoll media) was prepared by adding 112.5 mg/ml of ficoll70 and 75 mg/ml ficoll400 (GE healthcare #17-0310-10 and 17-0300-10, respectively), 100 μM ascorbic acid, 1% Glutamax and 1% Penicillin and Streptomycin to EMEM media. Test compounds (dissolved in DMSO) were diluted into crowding media and then added to the cells. Final concentration of DMSO in crowding media was less than 0.3%. Cells were treated for 24 to 48 hr in a 37° C. incubator. At the end of the treatment period, cell media were collected. The level of PICP in the media were determined by a PICP ELISA assay (Quidel #8003) following the manufacturer's protocol. Potencies of test compounds were calculated by fitting PICP levels, relative to untreated controls, to log (inhibitor) vs. response equation using Graphpad Prism software 5.0 and expressed as pIC50.
For some compounds, deposition of mature collagen was measured by immunostaining in addition to PICP levels. At the end of the treatment period, cells on culture plate were fixed with 100% methanol (prechilled to −20° C.) for 10 min. Then the cells were immunostained with mouse anti-mature collagen I antibody (1:500 dilution, Sigma#C2456), anti-mouse secondary antibody Alexa647 (1:500 dilution, Invitrogen#A21236) and Hoechst (for nuclei, 2 μg/ml, Invitrogen#H3596). Fluorescent image acquisition was done using the Operetta High Content Imaging system (Perkin Elmer). For each image field, the intensity of mature collagen staining was normalized with the number of nuclei. Normalized collagen levels were used to calculate the potency of test compounds with Graphpad Prism software, as described above.

Structure (SMILES)	IC50 [µM]
CCCCC[C@@H](C(=O)NCNC(=O)c1ccc(-c2ccccc2)o1)[C@@H](CC)N(O)C=O [Example 24, N-(((R)-2-((R)-1-(N-hydroxyformamido)propyl)heptanamido)methyl)-5-phenylfuran-2-carboxamide]	< 1
CCCCC[C@@H](C(=O)NCNC(=O)c1ccc(-c2cc(OCC)cc(C(=O)O)c2)o1)[C@@H](CC)N(O)C=O [Example 39, 3-ethoxy-5-(5-((((R)-2-((R)-1-(N-hydroxyformamido)propyl)heptanamido)methyl)carbamoyl)furan-2-yl)benzoic acid]	< 1
CCCCC[C@@H](C(=O)NCNC(=O)c1ccc(-c2cc(OCC)cc(C(=O)N[C@@H](CC(=O)O)C(=O)OC(C)(C)C)c2)o1)[C@@H](CC)N(O)C=O [Example 47, (S)-4-(tert-butoxy)-3-(3-ethoxy-5-(5-((((R)-2-((R)-1-(N-hydroxyformamido)propyl)heptanamido)methyl)carbamoyl)furan-2-yl)benzamido)-4-oxobutanoic acid]	< 1

Same assay, conditions: Homo sapiens, Cardiac fibroblast, read-out: pIC50, mature collagen cellular inhibition assay (converted)

Structure (SMILES)	IC50 [µM]
CCCCC[C@H](CN(O)C=O)C(=O)NCNC(=O)c1ccc(-c2ccccc2)o1 [Example 5, (R)-N-((2-((N-hydroxyformamido)methyl)heptanamido)methyl)-5-phenylfuran-2-carboxamide]	< 1
